Consider eleven compounds from PubChem BioAssay (NCI).

Among the test systems are LOX IMVI melanoma; A549 NSCLC; HOP-62 NSCLC; UACC-257 melanoma; K-562 leukemia; HL-60(TB) leukemia; HOP-92 NSCLC; NCI-H226 lung.
Common to all, as to assay: NCI-60 cell line screen, 48 h

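Method: 48-hour compound exposure of cells in 96-well plates, five concentrations, linear interpolation of endpoints. Abbreviation: GI50, concentration required for 50% inhibition of growth. TGI: concentration producing complete growth inhibition.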 Where only a bound is given, the exact number is not on record here.

As for `COc1cc[nH]c1/C=C1\C(=O)Nc2ccc(F)c(C#CC3(O)CCNCC3)c21`, the GI50 was 0.0645 µM in the assay on LOX IMVI melanoma; 0.0985 µM with A549 NSCLC; 0.261 µM in the assay on HOP-62 NSCLC; 0.363 µM in the assay with UACC-257 melanoma; 0.55 µM in the assay on K-562 leukemia; 0.0532 µM with HL-60(TB) leukemia. Besides, the GI50 in the assay on HOP-92 NSCLC is 0.106 µM; with NCI-H226 lung, 0.138 µM. For the same compound, the TGI in the assay with LOX IMVI melanoma was determined as 0.568 µM; in the assay on A549 NSCLC, 1.18 µM; with HOP-62 NSCLC, 1.47 µM; in the assay on UACC-257 melanoma it was 1.6 µM; with K-562 leukemia it was 2.51 µM; with HL-60(TB) leukemia, 0.228 µM. For the same compound, the TGI is 0.794 µM in the assay on HOP-92 NSCLC and 0.92 µM with NCI-H226 lung.
Regarding `Cc1ccc(-c2nc3nc(-c4ccccc4)nc(N4CCCNCC4)c3o2)cc1`, the GI50 with LOX IMVI melanoma is 1.76 µM; in the assay with A549 NSCLC, 1.65 µM; with HOP-62 NSCLC, 1.81 µM; with UACC-257 melanoma it was 1.72 µM; in the assay on K-562 leukemia it was 0.442 µM; in the assay with HL-60(TB) leukemia it was 0.726 µM. The GI50 in the assay with HOP-92 NSCLC is 1.44 µM; in the assay with NCI-H226 lung, 1.87 µM. For the same compound, the TGI with LOX IMVI melanoma was found to be 3.29 µM; in the assay on A549 NSCLC it was 3.06 µM; in the assay with HOP-62 NSCLC it was 3.36 µM; in the assay with UACC-257 melanoma it was 3.26 µM; in the assay on K-562 leukemia, 1.86 µM; with HL-60(TB) leukemia, 2.49 µM. The figures for the TGI in the assay on HOP-92 NSCLC and in the assay on NCI-H226 lung were 3.01 µM and 3.86 µM, respectively.
Turning to `CN(C)/N=C(/CC(O)(C(F)(F)F)C(F)(F)F)c1ccc([N+](=O)[O-])cc1`, the TGI in the assay on LOX IMVI melanoma, with A549 NSCLC, in the assay on HOP-62 NSCLC, in the assay on UACC-257 melanoma, with K-562 leukemia and in the assay on HL-60(TB) leukemia was over 100 µM in each case. Further, the TGI in the assay with HOP-92 NSCLC and in the assay with NCI-H226 lung was over 100 µM each time.
Take `Nc1c(-c2ccc(Cl)cc2)[n+]([O-])c2ccccc2[n+]1[O-]`: the TGI with LOX IMVI melanoma, in the assay with A549 NSCLC, with HOP-62 NSCLC, in the assay with UACC-257 melanoma, in the assay with K-562 leukemia and in the assay with HL-60(TB) leukemia was over 100 µM each time. Besides, the TGI with HOP-92 NSCLC and in the assay with NCI-H226 lung was over 100 µM throughout.
On to `COc1cc2cc(Oc3ccc(NC(=O)Nc4ccc(Cl)c(C(F)(F)F)c4)cc3)c(C)nc2cc1OCCN1CCOCC1`, for which the GI50 was 1.39 µM with LOX IMVI melanoma; 2.13 µM with A549 NSCLC; 2.05 µM in the assay with HOP-62 NSCLC; 1.57 µM in the assay with UACC-257 melanoma; 0.669 µM in the assay on K-562 leukemia; 2.32 µM with HL-60(TB) leukemia. In addition, the GI50 in the assay with HOP-92 NSCLC was 1.66 µM; in the assay with NCI-H226 lung it was 1.86 µM. The TGI with LOX IMVI melanoma was 2.81 µM; in the assay with A549 NSCLC, over 100 µM; with HOP-62 NSCLC, 4.55 µM; with UACC-257 melanoma it was 4.55 µM; with K-562 leukemia, 6.95 µM; in the assay on HL-60(TB) leukemia it was 7.55 µM. Also, the TGI in the assay on HOP-92 NSCLC worked out at 6.16 µM; in the assay on NCI-H226 lung it was 5.91 µM.
For `O=S(=O)(NC1=NCCN1C(=S)SN1CCn2c1nsc2=S)c1cccc(Cl)c1`, the GI50 was 10.7 µM in the assay with LOX IMVI melanoma; 30.3 µM with A549 NSCLC; 18.5 µM with HOP-62 NSCLC; 18.6 µM with UACC-257 melanoma; 13.4 µM with K-562 leukemia; 13.1 µM with HL-60(TB) leukemia. Besides, the GI50 was 25.4 µM with HOP-92 NSCLC and 19 µM with NCI-H226 lung. Moreover, the TGI with LOX IMVI melanoma is 22.9 µM; in the assay on A549 NSCLC, 91.2 µM; in the assay on HOP-62 NSCLC it was 37.6 µM; with UACC-257 melanoma, 39.5 µM; in the assay with K-562 leukemia it was over 100 µM; in the assay on HL-60(TB) leukemia, 80.5 µM. In addition, the TGI was found to be 71.3 µM in the assay on HOP-92 NSCLC and 55.7 µM in the assay with NCI-H226 lung.
As to `COc1ccc2c(c1)C(=O)c1c-2n(CCCn2ccnc2)c(=O)c2cc([N+](=O)[O-])ccc12`, the GI50 in the assay with LOX IMVI melanoma was under 0.01 µM; in the assay on A549 NSCLC it was under 0.01 µM; in the assay on HOP-62 NSCLC, under 0.01 µM; in the assay on UACC-257 melanoma, 0.115 µM; with K-562 leukemia, under 0.01 µM; in the assay on HL-60(TB) leukemia it was under 0.01 µM. For the same compound, the results for the GI50 in the assay on HOP-92 NSCLC and in the assay with NCI-H226 lung were under 0.0397 µM and under 0.01 µM, respectively. The TGI was 0.0351 µM in the assay on LOX IMVI melanoma; 0.0119 µM in the assay on HOP-62 NSCLC; over 100 µM with K-562 leukemia; 16.1 µM with HL-60(TB) leukemia; 0.584 µM in the assay on NCI-H226 lung.
`Nc1nccc(-c2c(-c3ccc(F)cc3)ncn2C2CCC(O)CC2)n1` (stereo unspecified): the GI50 with LOX IMVI melanoma was 9.34 µM; in the assay on A549 NSCLC it was 4.03 µM; in the assay with HOP-62 NSCLC it was 13.2 µM; in the assay with UACC-257 melanoma, 16.1 µM; with K-562 leukemia, 11.9 µM; with HL-60(TB) leukemia it was 24.4 µM. For the same compound, the GI50 with HOP-92 NSCLC was 1.62 µM; in the assay on NCI-H226 lung, 5.45 µM. The TGI in the assay with LOX IMVI melanoma, in the assay with A549 NSCLC, with HOP-62 NSCLC, with UACC-257 melanoma, with K-562 leukemia and with HL-60(TB) leukemia was over 25 µM each time. The figures for the TGI in the assay on HOP-92 NSCLC and in the assay on NCI-H226 lung were 17.3 µM and 24.5 µM, respectively.
In the case of `O=C(CC1(O)C(=O)Nc2c(Cl)ccc(Cl)c21)c1ccc(F)cc1` (stereo unspecified), the TGI in the assay on LOX IMVI melanoma was over 100 µM; in the assay with A549 NSCLC, over 100 µM; in the assay with HOP-62 NSCLC, over 100 µM; with UACC-257 melanoma it was over 100 µM; in the assay on K-562 leukemia it was over 100 µM; with HL-60(TB) leukemia, 58.2 µM. In addition, the TGI with HOP-92 NSCLC is 82.8 µM; in the assay on NCI-H226 lung, 79.6 µM.
`O/N=C/c1ncccc1C1OCCO1`: the TGI in the assay with LOX IMVI melanoma, with A549 NSCLC, with HOP-62 NSCLC, in the assay with UACC-257 melanoma, in the assay with K-562 leukemia and with HL-60(TB) leukemia was over 100 µM in each case. Also, the TGI in the assay on HOP-92 NSCLC and in the assay on NCI-H226 lung was over 100 µM in each case.
For `Cc1ccc2c(c1)Sc1c(ccc3ccccc13)N2`, the GI50 was 8.91 µM with LOX IMVI melanoma; 92.8 µM in the assay with A549 NSCLC; over 100 µM in the assay on HOP-62 NSCLC; over 100 µM with UACC-257 melanoma; 11.2 µM with K-562 leukemia; 34.2 µM with HL-60(TB) leukemia. Further, the values for the GI50 in the assay on HOP-92 NSCLC and in the assay on NCI-H226 lung were 7.07 µM and 11.8 µM, respectively. Besides, the TGI in the assay on LOX IMVI melanoma, in the assay with A549 NSCLC, with HOP-62 NSCLC, with UACC-257 melanoma, with K-562 leukemia and with HL-60(TB) leukemia was over 100 µM in each case. The TGI with HOP-92 NSCLC and with NCI-H226 lung was over 100 µM each time.
